Reference: patent US11517598B2 (priority 2016, dated 2022)
“Also recorded” adds a separate entry of the source. Like-named read-outs stand apart in the source and are kept apart here.

Columns and labels:
[1] = test system: oncolytic VSVΔ51 in 786-0 renal carcinoma cells
[2] = test system: VSVΔ51-GFP in CT26WT and DBT tumor cores; type: cell-based, mouse
[3] = test system: bilateral DBT tumors; conditions: mouse, in vivo
[4] = test system: CT26WT tumors; conditions: mouse
[5] = test system: HSV-1 (mutant N212) in 786-0 cells; type: cell-based, human
[6] = test system: CT26WT, 4T1, DBT, and Pan02 tumors; conditions: mouse, in vivo
[7] = test system: VSVwt in 786-0 cells; type: cell-based, human
[8] = test system: CXCL9 in various human cancer cell lines; type: cell-based
[9] = test system: STAT1; type: cell-based, human
[10] = test system: VSVΔ51 in GM38 fibroblasts; type: cell-based, human
[11] = test system: VSVΔ51 matrix (M) mRNA in 786-0 cells; type: cell-based, human
[12] = test system: VSVΔ51 matrix (M) mRNA in CT26-WT colon cancer cells; type: cell-based, mouse
[13] = test system: STAT2; type: cell-based, human
[14] = test system: VSVΔ51-GFP in normal lung, muscle and spleen tissue cores; type: cell-based, mouse
[15] = mouse, in vivo
[16] = test system: Measles virus in 786-0 cells; type: cell-based, human
[17] = test system: Sindbis virus in 786-0 cells; type: cell-based, human
[18] = test system: CT26-LacZ tumors; conditions: mouse, in vivo
[19] = test system: various human and rodent cancer cell lines
[20] = test system: cytokine, chemokine and IFN stimulated gene expression in 786-0 cells; type: cell-based, human
[21] = test system: IFITM1; type: cell-based, human
Sequence of IFITM1 (P13164 whole entry): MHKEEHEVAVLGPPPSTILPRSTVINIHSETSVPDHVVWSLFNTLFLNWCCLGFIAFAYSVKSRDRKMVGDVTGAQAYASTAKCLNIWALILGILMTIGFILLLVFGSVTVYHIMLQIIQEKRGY

Ammonium metavanadate
VSVΔ51 growth (viral titer, GFP positive cell counts) [1]: effectively enhanced VSVΔ51 growth

Chromium(VI) oxide [Chromium trioxide, reference compound]
VSVΔ51 growth (viral titer) [1]: did enhance viral growth but only at a single dose tested
toxicity (not shown) [1]: highly toxic in comparison to orthovanadate

Sodium orthovanadate
growth of VSVΔ51-GFP in tumor cores (fluorescence) [2]: robustly increased the growth of the virus in tumor cores
tumor regression with monotherapy [3]: some tumors did regress
virus-associated luminescence [3]: uniquely enhanced by vanadate in the injected tumors on the right side
T-cells within the tumor ([4]; in vivo): increased accumulation of T-cells within the tumor
re-challenge of cured mice with the same cancer cells ([4]; in vivo): became immune to re-challenge
in vivo virus-enhancing activity at pH 7 ([4]; pH 7): retained its activity
HSV-1 growth [5]: robustly inhibited
survival, combination with VSVΔ51 [6]: significantly improved survival; also recorded: significantly prolonged over virus alone
virus-associated luciferase gene expression (IVIS) [6]: robustly enhanced virus-associated luciferase gene expression
wtVSV yield [7]: modest improvements in wtVSV yield
CXCL9 secretion (ELISA) [8]: vanadate-mediated increase
IFN-β induced phosphorylation of STAT1 [9]: not altered by treatment with vanadate
IFNβ-induced STAT1 phosphorylation and nuclear accumulation [9]: did not similarly affect STAT1
localisation of activated STAT1 (immunofluorescence) [9]: translocated to the nucleus
phosphorylation of STAT1 at baseline [9]: increased by vanadate at baseline
effect on viral growth when given post infection [1]: close to nil
impact on viral growth with pre-treatment time [1]: increasingly evident with increasing pre-treatment time
number of virus-infected cells (GFP) [1]: marked increase in the number of virus-infected cells
pro-viral activity with metal chelating agent [1]: abrogated upon inclusion of L-Ascorbic Acid
viral output (viral titer by plaque assay) [1]: significantly increase viral output
virus-enhancing activity at different pH (protonation state) [1]: had no impact on its activity
yield of VSVΔ51 in single and multi-step growth curves [1]: more robustly enhanced the yield of VSVΔ51 when provided at low multiplicity of infection (MOI) compared to high MOI
VSVΔ51 viral growth in normal cells [10]: viral growth was not enhanced
VSVΔ51 matrix (M) protein mRNA and/or viral genomes [11]: increased the production of VSVΔ51 matrix (M) protein mRNA and/or viral genomes
VSVΔ51 matrix (M) protein mRNA and/or viral genomes [12]: increased the production of VSVΔ51 matrix (M) protein mRNA and/or viral genomes
IFNβ-induced phosphorylation of STAT2 [13]: inhibited the IFNβ-induced phosphorylation of STAT2
STAT2 nuclear accumulation [13]: reduced its nuclear accumulation
localisation of STAT-2 (immunofluorescence) [13]: remained mostly in the cytoplasm
growth of VSVΔ51-GFP in normal tissue cores (fluorescence) [14]: not in normal tissue cores
toxicity [15]: evidence of toxicity was observed
toxicity ([15]; pH 7): greatly reduced
yield of Measles virus [16]: improved
yield of Sindbis virus [17]: improved
enhancing effect on survival [18]: completely abrogated
cytotoxicity (cell viability) with VSVΔ51 co-infection [19]: A similar effect
gene set-enrichment (GOrilla), compound alone [20]: induced inflammatory responses, and immune system processes
protein expression levels of IFITM1 [21]: potently repressed

Vanadium(V) oxytriethoxide [VOx]
VSVΔ51 growth (viral titer, GFP positive cell counts) [1]: effectively enhanced VSVΔ51 growth

Tungsten [reference compound]
VSVΔ51 growth (viral titer, GFP positive cell counts) [1]: neither Manganese, Molybdene, or Tungsten oxide salts could enhance VSVΔ51 growth

potassium permanganate [Manganese, reference compound]
VSVΔ51 growth (viral titer, GFP positive cell counts) [1]: neither Manganese, Molybdene, or Tungsten oxide salts could enhance VSVΔ51 growth

Vanadium(IV) oxide sulfate hydrate [VS]
VSVΔ51 growth (viral titer, GFP positive cell counts) [1]: effectively enhanced VSVΔ51 growth

CC(=O)N[C@@H](CS)C(=O)O [NAC, N-acetyl-L-cysteine, reference compound]
effect of NAC on vanadate-enhanced viral spread (viral titer) [1]: did not abrogate vanadate's capacity to enhance viral spread

Bis(maltolato) oxovanadium(IV) [BMOV]
VSVΔ51 growth (viral titer, GFP positive cell counts) [1]: effectively enhanced VSVΔ51 growth
